What was measured:
[1] = tested on: RSV (RSV A2 ECACC, 0709161v); assay: RSV plaque reduction assay; format: cell-based, respiratory syncytial virus; conditions: human respiratory syncytial virus, HepG2, read-out: RSV A2 Plaque EC50, RSV A2 in Hep-G2 cells; mean of at least two experiments unless noted (n = 1)
Method in brief: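 Eight-point compound dilutions were premixed with RSV A2 (100 PFU/well) and applied to confluent Hep-G2 cells for 2 h, followed by a 2-day incubation at 37° C. under compound-containing 0.8% CMC overlay. EC50 comes from immunostained plaque counts relative to untreated virus wells, averaged over ≥2 runs.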

[2] = cell toxicity CC50; format: cell-based; conditions: human; Hep-G2 cells; mean of at least two experiments; read-out: Cell Cytotoxicity CC50

With `C[C@@H]1CCn2nc(-c3cnn(CCO)c3)c(C(=O)N[C@H]3N=C(c4ccccc4)c4cccc(F)c4NC3=O)c2O1` [Example 117, (5R)-N-[(3S)-9-fluoro-2-oxo-5-phenyl-1,3-dihydro-1,4-benzodiazepin-3-yl]-2-[1-(2-hydroxyethyl)pyrazol-4-yl]-5-methyl-6,7-dihydro-5H-pyrazolo[5,1-b][1,3]oxazine-3-carboxamide] as the compound, how does the EC50 [1] read?
Its EC50 is 434 nM.

What about the CC50 [2] of the same compound?
Its CC50 is greater than 25000 nM.

Which EC50 [1] does the source give for `O=C(N[C@H]1N=C(c2ccccc2)c2cccc(F)c2NC1=O)c1c(-c2ccc(C3CC3)nc2)nn2c1OCCC2` [Example 18, 2-(6-Cyclopropylpyridin-3-yl)-N-[(3S)-9-fluoro-2-oxo-5-phenyl-1,3-dihydro-1,4-benzodiazepin-3-yl]-6,7-dihydro-5H-pyrazolo[5,1-b][1,3]oxazine-3-carboxamide] here?
Its EC50 is 96 nM.

And the CC50 [2]?
The CC50 was greater than 25000 nM.

With `CC1(C)COc2c(C(=O)N[C@H]3N=C(c4ccccc4)c4cccc(F)c4NC3=O)c(-c3ccccc3F)nn2C1` [Example 41, N-[(3S)-9-fluoro-2-oxo-5-phenyl-1,3-dihydro-1,4-benzodiazepin-3-yl]-2-(2-fluorophenyl)-6,6-dimethyl-5,7-dihydropyrazolo[5,1-b][1,3]oxazine-3-carboxamide] as the compound, how does the EC50 [1] read?
The EC50 was 29 nM.

What about the CC50 [2] of the same compound?
Its CC50 is greater than 25000 nM.

Which results are given for `CCCC1COc2c(C(=O)N[C@H]3N=C(c4ccccc4)c4cccc(F)c4NC3=O)c(-c3ccccc3F)nn2C1` (stereo partly drawn) [Example 14, N-[(3S)-9-fluoro-2-oxo-5-phenyl-2,3-dihydro-1H-1,4-benzodiazepin-3-yl]-2-(2-fluorophenyl)-6-propyl-5H,6H,7H-pyrazolo[3,2-b][1,3]oxazine-3-carboxamide]?
EC50 [1]: 36 nM; CC50 [2]: > 25000 nM

For `C[C@@H]1CCn2nc(-c3cnn(CC(C)(C)O)c3)c(C(=O)N[C@H]3N=C(c4ccccc4)c4cccc(F)c4NC3=O)c2O1` [Example 122, (5R)-N-[(3S)-9-fluoro-2-oxo-5-phenyl-1,3-dihydro-1,4-benzodiazepin-3-yl]-2-[1-(2-hydroxy-2-methylpropyl)pyrazol-4-yl]-5-methyl-6,7-dihydro-5H-pyrazolo[5,1-b][1,3]oxazine-3-carboxamide], which EC50 [1] is on record?
The EC50 was 166 nM.

And the CC50 [2]?
The CC50 was greater than 25000 nM.

What does the source list for `N#Cc1ccc(-c2nn3c(c2C(=O)N[C@H]2N=C(c4ccccc4)c4cccc(F)c4NC2=O)OCCC3)c(F)c1` [Example 138, 2-(4-Cyano-2-fluorophenyl)-N-[(3S)-9-fluoro-2-oxo-5-phenyl-1,3-dihydro-1,4-benzodiazepin-3-yl]-6,7-dihydro-5H-pyrazolo[5,1-b][1,3]oxazine-3-carboxamide]?
EC50 [1]: 54 nM; CC50 [2]: > 25000 nM

For `CC1(C)CCn2nc(-c3ccccc3F)c(C(=O)N[C@H]3N=C(c4ccccc4)c4cccc(F)c4NC3=O)c2O1` [Example 5, N-[(3S)-9-fluoro-2-oxo-5-phenyl-2,3-dihydro-1H-1,4-benzodiazepin-3-yl]-2-(2-fluorophenyl)-5,5-dim ethyl-5H,6H,7H-pyrazolo[3,2-b][1,3]oxazine-3 carboxamide], which EC50 [1] is on record?
The EC50 was 54 nM.

And the CC50 [2]?
Its CC50 is greater than 25000 nM.

Which results are given for `CCn1cc(-c2nn3c(c2C(=O)N[C@H]2N=C(c4ccccc4)c4cccc(F)c4NC2=O)OCC(CO)C3)cn1` (stereo partly drawn) [Example 130, 2-(1-Ethylpyrazol-4-yl)-N-[(3S)-9-fluoro-2-oxo-5-phenyl-1,3-dihydro-1,4-benzodiazepin-3-yl]-6-(hydroxymethyl)-6,7-dihydro-5H-pyrazolo[5,1-b][1,3]oxazine-3-carboxamide]?
EC50 [1]: 350 nM; CC50 [2]: > 25000 nM

Which EC50 [1] does the source give for `O=C(N[C@H]1N=C(c2ccccc2)c2cccc(F)c2NC1=O)c1c(-c2cnn(C3CCOCC3)c2)nn2c1OCCC2` [Example 152, N-[(3S)-9-Fluoro-2-oxo-5-phenyl-1,3-dihydro-1,4-benzodiazepin-3-yl]-2-[1-(oxan-4-yl)pyrazol-4-yl]-6,7-dihydro-5H-pyrazolo[5,1-b][1,3]oxazine-3-carboxamide] here?
The EC50 was 84 nM.

What about the CC50 [2] of the same compound?
Its CC50 is greater than 25000 nM.

Which EC50 [1] does the source give for `C[C@@H]1CCn2nc(C3CCCCC3)c(C(=O)N[C@H]3N=C(c4ccccc4)c4cccc(F)c4NC3=O)c2O1` [Example 114, (5R)-2-Cyclohexyl-N-[(3S)-9-fluoro-2-oxo-5-phenyl-1,3-dihydro-1,4-benzodiazepin-3-yl]-5-methyl-6,7-dihydro-5H-pyrazolo[5,1-b][1,3]oxazine-3-carboxamide] here?
Its EC50 is 117 nM.

What about the CC50 [2] of the same compound?
Its CC50 is 17100 nM.

For `CC(C)c1ccc(-c2nn3c(c2C(=O)N[C@H]2N=C(c4ccccc4)c4cccc(F)c4NC2=O)O[C@H](C)CC3)cn1` [Example 70, (5R)-5-Methyl-2-(6-propan-2-ylpyridin-3-yl)-N-[(3S)-9-fluoro-2-oxo-5-phenyl-1,3-dihydro-1,4-benzodiazepin-3-yl]-6,7-dihydro-5H-pyrazolo[5,1-b][1,3]oxazine-3-carboxamide], which EC50 [1] is on record?
The EC50 was 50 nM.

And the CC50 [2]?
Its CC50 is greater than 25000 nM.

For `CS(=N)(=O)c1ccc(-c2nn3c(c2C(=O)N[C@H]2N=C(c4ccccc4)c4cccc(F)c4NC2=O)OCCC3)c(F)c1` (stereo partly drawn) [Example 143, 2-[2-Fluoro-4-(methylsulfonimidoyl)phenyl]-N-[(3S)-9-fluoro-2-oxo-5-phenyl-1,3-dihydro-1,4-benzodiazepin-3-yl]-6,7-dihydro-5H-pyrazolo[5,1-b][1,3]oxazine-3-carboxamide], which EC50 [1] is on record?
The EC50 was 149 nM.

What about the CC50 [2] of the same compound?
The CC50 was greater than 25000 nM.

Which results are given for `CCc1ncc(-c2nn3c(c2C(=O)N[C@H]2N=C(c4ccccc4)c4ccccc4NC2=O)O[C@H](C)CC3)cn1` [Example 59, (5R)-2-(2-Ethylpyrimidin-5-yl)-5-methyl-N-[(3S)-2-oxo-5-phenyl-1,3-dihydro-1,4-benzodiazepin-3-yl]-6,7-dihydro-5H-pyrazolo[5,1-b][1,3]oxazine-3-carboxamide]?
EC50 [1]: 309 nM; CC50 [2]: > 25000 nM

Which results are given for `Cc1ccc(-c2nn3c(c2C(=O)N[C@H]2N=C(c4ccccc4)c4ccccc4NC2=O)O[C@H](C)CC3)c(C)n1` [Example 57, (5R)-2-(2,6-Dimethyl-3-pyridyl)-5-methyl-N-[(3S)-2-oxo-5-phenyl-1,3-dihydro-1,4-benzodiazepin-3-yl]-6,7-dihydro-5H-pyrazolo[5,1-b][1,3]oxazine-3-carboxamide]?
EC50 [1]: 353 nM; CC50 [2]: > 25000 nM

With `CCn1cc(-c2nn3c(c2C(=O)N[C@H]2N=C(c4ccccc4)c4cccc(F)c4NC2=O)OCCC3)cn1` [Example 99, 2-(1-Ethylpyrazol-4-yl)-N-[(3S)-9-fluoro-2-oxo-5-phenyl-1,3-dihydro-1,4-benzodiazepin-3-yl]-6,7-dihydro-5H-pyrazolo[5,1-b][1,3]oxazine-3-carboxamide] as the compound, how does the EC50 [1] read?
The EC50 was 71 nM.

What about the CC50 [2] of the same compound?
The CC50 was greater than 25000 nM.

What does the source list for `COc1cc(-c2nn3c(c2C(=O)N[C@H]2N=C(c4ccccc4)c4cccc(F)c4NC2=O)O[C@H](C)CC3)ccn1` [Example 48, (5R)-2-(2-Methoxypyridin-4-yl)-5-methyl-N-[(3S)-9-fluoro-2-oxo-5-phenyl-1,3-dihydro-1,4-benzodiazepin-3-yl]-6,7-dihydro-5H-pyrazolo[5,1-b][1,3]oxazine-3-carboxamide]?
EC50 [1]: 246 nM; CC50 [2]: > 25000 nM

With `CC(C)C1COc2c(C(=O)N[C@H]3N=C(c4ccccc4)c4cccc(F)c4NC3=O)c(-c3ccccc3F)nn2C1` (stereo partly drawn) [Example 12, N-[(3S)-9-Fluoro-2-oxo-5-phenyl-2,3-dihydro-1H-1,4-benzodiazepin-3-yl]-2-(2-flurophenyl)-6-(propan-2-yl)-5H,6H,7H-pyrazolo[3,2-b][1,3]oxazine-3-carboxamide] as the compound, how does the EC50 [1] read?
Its EC50 is 39 nM.

What about the CC50 [2] of the same compound?
Its CC50 is greater than 25000 nM.
